Assays:
Format in all cases: functional
Details in all cases: at 10 µM
[1] = Growth inhibition of human NCI-322M cells after 48 hrs by cell counting analysis
HCT-116 = assay: Growth inhibition of human HCT116 cells after 48 hrs by cell counting analysis
K562 = assay: Growth inhibition of human K562 cells after 48 hrs by cell counting analysis
NCI-H23 = assay: Growth inhibition of human NCI-H23 cells after 48 hrs by cell counting analysis
RPMI-8226 = assay: Growth inhibition of human RPMI8226 cells after 48 hrs by cell counting analysis
IGROV-1 = assay: Growth inhibition of human IGROV1 cells after 48 hrs by cell counting analysis
HOP-62 = assay: Growth inhibition of human HOP62 cells after 48 hrs by cell counting analysis
SNB-19 = assay: Growth inhibition of human SNB19 cells after 48 hrs by cell counting analysis
SK-MEL-2 = assay: Growth inhibition of human SK-MEL-2 cells after 48 hrs by cell counting analysis
SK-MEL-28 = assay: Growth inhibition of human SK-MEL-28 cells after 48 hrs by cell counting analysis
SK-MEL-5 = assay: Growth inhibition of human SK-MEL-5 cells after 48 hrs by cell counting analysis
MCF7 = assay: Growth inhibition of human MCF7 cells after 48 hrs by cell counting analysis
PC-3 = assay: Growth inhibition of human PC3 cells after 48 hrs by cell counting analysis
CCRF-CEM = assay: Growth inhibition of human CCRF-CEM cells after 48 hrs by cell counting analysis
MOLT-4 = assay: Growth inhibition of human MOLT4 cells after 48 hrs by cell counting analysis
T47D = assay: Growth inhibition of human T47D cells after 48 hrs by cell counting analysis
NCI-H226 = assay: Growth inhibition of human NCI-H226 cells after 48 hrs by cell counting analysis
SF-295 = assay: Growth inhibition of human SF295 cells after 48 hrs by cell counting analysis
NCI-H522 = assay: Growth inhibition of human NCI-H522 cells after 48 hrs by cell counting analysis
HT-29 = assay: Growth inhibition of human HT-29 cells after 48 hrs by cell counting analysis
SR = assay: Growth inhibition of human SR cells after 48 hrs by cell counting analysis
KM12 = assay: Growth inhibition of human KM12 cells after 48 hrs by cell counting analysis
RXF 393 = assay: Growth inhibition of human RXF393 cells after 48 hrs by cell counting analysis
SN12C = assay: Growth inhibition of human SN12C cells after 48 hrs by cell counting analysis
OVCAR-5 = assay: Growth inhibition of human OVCAR5 cells after 48 hrs by cell counting analysis
[2] = Growth inhibition of human NCI-ADR-RES cells after 48 hrs by cell counting analysis
SW-620 = assay: Growth inhibition of human SW620 cells after 48 hrs by cell counting analysis
LOX IMVI = assay: Growth inhibition of human LOXIMVI cells after 48 hrs by cell counting analysis
SK-OV-3 = assay: Growth inhibition of human SKOV3 cells after 48 hrs by cell counting analysis
UACC-257 = assay: Growth inhibition of human UACC257 cells after 48 hrs by cell counting analysis
HCC 2998 = assay: Growth inhibition of human HCC2998 cells after 48 hrs by cell counting analysis
OVCAR-8 = assay: Growth inhibition of human OVCAR8 cells after 48 hrs by cell counting analysis
U-251 = assay: Growth inhibition of human U251 cells after 48 hrs by cell counting analysis
HCT-15 = assay: Growth inhibition of human HCT15 cells after 48 hrs by cell counting analysis
OVCAR-3 = assay: Growth inhibition of human OVCAR3 cells after 48 hrs by cell counting analysis
EKVX = assay: Growth inhibition of human EKVX cells after 48 hrs by cell counting analysis
OVCAR-4 = assay: Growth inhibition of human OVCAR4 cells after 48 hrs by cell counting analysis
MDA-MB-435 = assay: Growth inhibition of human MDA-MB-435 cells after 48 hrs by cell counting analysis
SF-539 = assay: Growth inhibition of human SF539 cells after 48 hrs by cell counting analysis
ACHN = assay: Growth inhibition of human ACHN cells after 48 hrs by cell counting analysis
BT-549 = assay: Growth inhibition of human BT549 cells after 48 hrs by cell counting analysis
SNB-75 = assay: Growth inhibition of human SNB75 cells after 48 hrs by cell counting analysis
HL-60 = assay: Growth inhibition of human HL60 cells after 48 hrs by cell counting analysis
A549 = assay: Growth inhibition of human A549 cells after 48 hrs by cell counting analysis
MDA-MB-468 = assay: Growth inhibition of human MDA-MB-468 cells after 48 hrs by cell counting analysis
UACC-62 = assay: Growth inhibition of human UACC62 cells after 48 hrs by cell counting analysis
M14 = assay: Growth inhibition of human M14 cells after 48 hrs by cell counting analysis
CAKI-1 = assay: Growth inhibition of human Caki1 cells after 48 hrs by cell counting analysis
HOP-92 = assay: Growth inhibition of human HOP92 cells after 48 hrs by cell counting analysis
Malme-3M = assay: Growth inhibition of human MALME-3M cells after 48 hrs by cell counting analysis
SF-268 = assay: Growth inhibition of human SF268 cells after 48 hrs by cell counting analysis
TK-10 = assay: Growth inhibition of human TK10 cells after 48 hrs by cell counting analysis
MDA-MB-231 = assay: Growth inhibition of human MDA-MB-231 cells after 48 hrs by cell counting analysis
UO-31 = assay: Growth inhibition of human UO31 cells after 48 hrs by cell counting analysis

In the case of `O=C(CN1CCN(c2ccccc2)CC1)Nc1nc(-c2ccc(Br)cc2)cs1`, the “growth inhibition (GI)” value [1] was 20.5%, the “growth inhibition (GI)” value (HCT-116) was 33.1% and the “growth inhibition (GI)” value (K562) was 70.7%. The “growth inhibition (GI)” value (NCI-H23) was 22.5%, the “growth inhibition (GI)” value (RPMI-8226) was 33.6% and the “growth inhibition (GI)” value (IGROV-1) was 34.3%. For the same molecule, the “growth inhibition (GI)” value (HOP-62) was <10%, the “growth inhibition (GI)” value (SNB-19) was 23.9% and the “growth inhibition (GI)” value (SK-MEL-2) was 14.5%. The “growth inhibition (GI)” value (SK-MEL-28) was <10%, the “growth inhibition (GI)” value (SK-MEL-5) was 39.4% and the “growth inhibition (GI)” value (MCF7) was 41.2%. For the same molecule, the “growth inhibition (GI)” value (PC-3) was 28.5%, the “growth inhibition (GI)” value (CCRF-CEM) was 22.2% and the “growth inhibition (GI)” value (MOLT-4) was 47.6%. For the same molecule, the “growth inhibition (GI)” value (T47D) was 41.8%, the “growth inhibition (GI)” value (NCI-H226) was 20.2% and the “growth inhibition (GI)” value (SF-295) was 20.9%. For the same molecule, the “growth inhibition (GI)” value (NCI-H522) was 34.5%, the “growth inhibition (GI)” value (HT-29) was 37.7% and the “growth inhibition (GI)” value (SR) was <10%. For the same molecule, the “growth inhibition (GI)” value (KM12) was <10%, the “growth inhibition (GI)” value (RXF 393) was 13.6% and the “growth inhibition (GI)” value (SN12C) was 23.7%. The “growth inhibition (GI)” value (OVCAR-5) was <10%, the “growth inhibition (GI)” value [2] was 30.9% and the “growth inhibition (GI)” value (SW-620) was <10%. The “growth inhibition (GI)” value (LOX IMVI) was 11.6%, the “growth inhibition (GI)” value (SK-OV-3) was <10% and the “growth inhibition (GI)” value (UACC-257) was 13.7%. For the same molecule, the “growth inhibition (GI)” value (HCC 2998) was 21%, the “growth inhibition (GI)” value (OVCAR-8) was 11.9% and the “growth inhibition (GI)” value (U-251) was <10%. The “growth inhibition (GI)” value (HCT-15) was 26.1%, the “growth inhibition (GI)” value (OVCAR-3) was <10% and the “growth inhibition (GI)” value (EKVX) was 26.7%. For the same molecule, the “growth inhibition (GI)” value (OVCAR-4) was <10%, the “growth inhibition (GI)” value (MDA-MB-435) was 23.9% and the “growth inhibition (GI)” value (SF-539) was <10%. For the same molecule, the “growth inhibition (GI)” value (ACHN) was 15.7%, the “growth inhibition (GI)” value (BT-549) was 13.6% and the “growth inhibition (GI)” value (SNB-75) was 17.9%. The “growth inhibition (GI)” value (HL-60) was 27.1%, the “growth inhibition (GI)” value (A549) was 30.8% and the “growth inhibition (GI)” value (MDA-MB-468) was 55.6%. The “growth inhibition (GI)” value (UACC-62) was 40.1%, the “growth inhibition (GI)” value (M14) was 15.7% and the “growth inhibition (GI)” value (CAKI-1) was 33.5%. For the same molecule, the “growth inhibition (GI)” value (HOP-92) was <10%, the “growth inhibition (GI)” value (Malme-3M) was 13.8% and the “growth inhibition (GI)” value (SF-268) was 17%. For the same molecule, the “growth inhibition (GI)” value (TK-10) was 28.3%, the “growth inhibition (GI)” value (MDA-MB-231) was 22.2% and the “growth inhibition (GI)” value (UO-31) was 54.6%.

With `CN1CCN(CCC(=O)Nc2nc(-c3ccc(Br)cc3)cs2)CC1` the “growth inhibition (GI)” value [1] was 17.2%, the “growth inhibition (GI)” value (HCT-116) was 42.5% and the “growth inhibition (GI)” value (K562) was 52.4%. For the same molecule, the “growth inhibition (GI)” value (NCI-H23) was 26%, the “growth inhibition (GI)” value (RPMI-8226) was 30.5% and the “growth inhibition (GI)” value (IGROV-1) was 20.4%. The “growth inhibition (GI)” value (HOP-62) was 25%, the “growth inhibition (GI)” value (SNB-19) was 20.9% and the “growth inhibition (GI)” value (SK-MEL-2) was <10%. For the same molecule, the “growth inhibition (GI)” value (SK-MEL-28) was 23.4%, the “growth inhibition (GI)” value (SK-MEL-5) was 76.2% and the “growth inhibition (GI)” value (MCF7) was 28.8%. The “growth inhibition (GI)” value (PC-3) was 24.6%, the “growth inhibition (GI)” value (CCRF-CEM) was 24.9% and the “growth inhibition (GI)” value (MOLT-4) was 38.1%. For the same molecule, the “growth inhibition (GI)” value (T47D) was 34.9%, the “growth inhibition (GI)” value (NCI-H226) was 19.1% and the “growth inhibition (GI)” value (SF-295) was 14.4%. For the same molecule, the “growth inhibition (GI)” value (NCI-H522) was 28.5%, the “growth inhibition (GI)” value (HT-29) was 80.4% and the “growth inhibition (GI)” value (SR) was <10%. For the same molecule, the “growth inhibition (GI)” value (KM12) was <10%, the “growth inhibition (GI)” value (RXF 393) was 38.1% and the “growth inhibition (GI)” value (SN12C) was 31.9%. For the same molecule, the “growth inhibition (GI)” value (OVCAR-5) was 15.6%, the “growth inhibition (GI)” value [2] was 22.9% and the “growth inhibition (GI)” value (SW-620) was <10%. The “growth inhibition (GI)” value (LOX IMVI) was 31.8%, the “growth inhibition (GI)” value (SK-OV-3) was <10% and the “growth inhibition (GI)” value (UACC-257) was 36.4%. The “growth inhibition (GI)” value (HCC 2998) was <10%, the “growth inhibition (GI)” value (OVCAR-8) was <10% and the “growth inhibition (GI)” value (U-251) was 33.6%. For the same molecule, the “growth inhibition (GI)” value (HCT-15) was 42.6%, the “growth inhibition (GI)” value (OVCAR-3) was <10% and the “growth inhibition (GI)” value (EKVX) was 10.8%. For the same molecule, the “growth inhibition (GI)” value (OVCAR-4) was <10%, the “growth inhibition (GI)” value (MDA-MB-435) was 50.6% and the “growth inhibition (GI)” value (SF-539) was 31.4%. For the same molecule, the “growth inhibition (GI)” value (ACHN) was 15.9%, the “growth inhibition (GI)” value (BT-549) was 32.5% and the “growth inhibition (GI)” value (SNB-75) was 47.9%. For the same molecule, the “growth inhibition (GI)” value (HL-60) was 37.7%, the “growth inhibition (GI)” value (A549) was 22.2% and the “growth inhibition (GI)” value (MDA-MB-468) was 48.7%. The “growth inhibition (GI)” value (UACC-62) was 71.6%, the “growth inhibition (GI)” value (M14) was 33.7% and the “growth inhibition (GI)” value (CAKI-1) was 30.2%. For the same molecule, the “growth inhibition (GI)” value (HOP-92) was 42.7%, the “growth inhibition (GI)” value (Malme-3M) was 24.6% and the “growth inhibition (GI)” value (SF-268) was 12.8%. For the same molecule, the “growth inhibition (GI)” value (TK-10) was 22.5%, the “growth inhibition (GI)” value (MDA-MB-231) was 64.3% and the “growth inhibition (GI)” value (UO-31) was 50.8%.

From ChEMBL document CHEMBL2150993, “Substituted thiazoles VII. Synthesis and antitumor activity of certain 2-(substituted amino)-4-phenyl-1,3-thiazole analogs” (2012)
